Test results: patent US9458101B2 (priority 2009, dated 2016)

Columns and labels:
[1] = test system: A549, HeLa, MCF-7 and CEM cell lines; assay: Cytotoxicity, mean over A549, HeLa, MCF-7 and CEM cell lines; conditions: for cytotoxicity compared with colchicine: cytotoxicity assays; for average IC50 values compared with colchicine: average values of Table 3; for IC50 [log10 M] (mean logIC50): mean over A549, HeLa, MCF-7 and CEM cell lines
From the text: (§1) Cell lines used were A549 (Human lung carcinoma), HeLa (Human cervical carcinoma), MCF-7 (Human mammary gland adenocarcinoma), CEM (Human T-lymphoblastoid from ALL (Acute lymphoblastic leukemia)), M010B (Human glioma), M006X (Human glioma) and Jurkat (Human T-cell leukemia).
(§2) A primary MTS assay was used to test the optimal number of cells for cytotoxicity assays. Cells were trypsinized, counted and introduced into seven lanes of a 96-well plate at different cell numbers (eight replicates per lane). Optimal cell numbers were determined after 72 and 96 hours of growth and were used in subsequent cytotoxicity assays. […] Cell viability was determined using the Cell Titer 96 AQueous One Solution Cell Proliferation Assay (Promega, U.S.A.).
(§3) [formula] […] Itop is the response obtained at very low/no drug concentration. The data and all parameters were normalized to Itop−Ibot, a measure of the maximum effect of the drug.
Cytotoxicity screening was performed on a number of cell lines based on the cancer of origin and differing morphologies.

[2] = test system: A549 (Human lung carcinoma); assay: Cytotoxicity testing (MTS) on A549; type: cell-based
Description: as §1
(§4) A series of dilutions were prepared and a wavelength scan of the diluted solution was used to determine the wavelength of maximum absorbance for each compound. Five standardized drug concentrations were scanned at this pre-determined wavelength to obtain an estimate of the compound's extinction coefficient.
as §2
(§5) Fits were performed using a dose-response model ideal for data showing an initial response plateau, a transition region, and a final response plateau.
as §3

[3] = test system: MCF-7 (Human mammary gland adenocarcinoma); assay: Cytotoxicity testing (MTS) on MCF-7; type: cell-based
Description: as §1, §4, §2, §5, §3

[4] = test system: HeLa (Human cervical carcinoma); assay: Cytotoxicity testing (MTS) on HeLa; type: cell-based
Description: as §1, §4, §2, §5, §3

[5] = test system: CEM (Human T-lymphoblastoid from ALL); assay: Cytotoxicity testing (MTS) on CEM; type: cell-based
Description: as §1, §4, §2, §5, §3

SMILES	cytotoxicity compared with colchicine [1]	Fraction of cells that survive at the highest drug concentrations (Ibot) [2]	logIC50 [2] [log10 M]	Fraction of cells that survive at the highest drug concentrations (Ibot) [3]	logIC50 [3] [log10 M]	Fraction of cells that survive at the highest drug concentrations (Ibot) [4]	logIC50 [4] [log10 M]	Fraction of cells that survive at the highest drug concentrations (Ibot) [5]	logIC50 [5] [log10 M]	average IC50 values compared with colchicine [1]	IC50 [log10 M] (mean logIC50) [1]
COc1c(O)cc2c(c1OC)-c1ccc(OC)c(=O)cc1[C@@H](NC(C)=O)CC2 [Compound 50]	consistently the most effective										
COc1cc2c(c(O)c1OC)-c1ccc(OC)c(=O)cc1[C@@H](NC(C)=O)CC2 [Compound 3, N-[(7S)-1-hydroxy-2,3,10-trimethoxy-9-oxo-5,6,7,9-tetrahydrobenzo[α]heptalen-7-yl]acetamide]		0.235 ± 0.048	−5.29 ± 0.11	0.518 ± 0.033	−5.25 ± 0.10						
COc1c(O)cc2c(c1OC)-c1ccc(SC)c(=O)cc1[C@@H](NC(C)=O)CC2 [Compound 40, N-[(7S)-3-hydroxy-1,2-dimethoxy-3-hydroxy-10-methylsulfanyl-9-oxo-5,6,7,9-tetrahydrobenzo[α]heptalen-7-yl]acetamide]	consistently the most effective										
COc1cc2c(c(OC(C)C)c1OC)-c1ccc(OC)c(=O)cc1[C@@H](NC(C)=O)CC2 [Compound 7, N-[(7S)-1-(ethoxy-1-methyl)-2,3,10-trimethoxy-9-oxo-5,6,7,9-tetrahydrobenzo[α]heptalen-7-yl]acetamide]	moderately better than colchicine	0.229 ± 0.014	−7.66 ± 0.08	0.464 ± 0.009	−8.10 ± 0.05	0.066 ± 0.022	−8.25 ± 0.09	0.000 ± 0.014	−8.49 ± 0.10	stronger than colchicine	−8.12 ± 0.08
COc1cc2c(c(OC(C)=O)c1OC)-c1ccc(OC)c(=O)cc1[C@@H](NC(C)=O)CC2 [Compound 2, N-[(7S)-2,3,10-trimethoxy-1-((methyl)carbonyloxy)-9-oxo-5,6,7,9-tetrahydrobenzo[α]heptalen-7-yl]acetamide]		0.283 ± 0.022	−5.89 ± 0.06	0.424 ± 0.019	−6.32 ± 0.10	0.074 ± 0.031	−6.48 ± 0.13	0.027 ± 0.021	−6.65 ± 0.08		−6.34 ± 0.09
C=CCOc1cc2c(c(OC)c1OC)-c1ccc(SC)c(=O)cc1[C@@H](NC(C)=O)CC2 [Compound 41, N-[(7S)-1,2-dimethoxy-10-methylsulfanyl-9-oxo-3-(prop(2-en)oxy)-5,6,7,9-tetrahydrobenzo[α]heptalen-7-yl]acetamide]		0.243 ± 0.012	−8.50 ± 0.11	0.472 ± 0.016	−8.31 ± 0.12	0.039 ± 0.016	−8.45 ± 0.11	−0.050 ± 0.022	−8.29 ± 0.10	stronger than colchicine	−8.39 ± 0.11
